Results taken from patent US5519000A, “Tumor necrosis factor inhibitors” (Centecor, Inc., priority 1994, dated 1996).
No end group written: not given here.

target: T1, human TNFα (Homo sapiens, UniProt P01375); assay: p55 receptor/IgG fusion protein binding assay (inhibition of TNFα capture by p55-Ig coated plate); settings: human recombinant TNFα 25 ng/ml preincubated with peptide; relative to TNFα in the absence of peptide; read-out: IC50 (concentration necessary to inhibit TNFα by 50%), inhibition of binding of TNFα to p55TNFr-IgG chimeric construct
T1 construct: purchased Biosource, Camarillo, Calif
T1 sequence (P01375 77-233 limits assumed): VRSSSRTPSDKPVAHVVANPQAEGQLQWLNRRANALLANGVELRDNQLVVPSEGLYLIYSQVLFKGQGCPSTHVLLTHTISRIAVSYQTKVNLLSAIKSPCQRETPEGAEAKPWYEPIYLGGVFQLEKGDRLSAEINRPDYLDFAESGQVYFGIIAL
Protocol: In order to screen compounds for their ability to block TNFα binding to the TNF p55 receptor, an assay has been designed using TNFα and a p55/IgG fusion protein in place of monovalent, non-fusion p55 TNF receptor protein. This assay was designed to identify peptides which bind to human TNFα and thereby prevent the capture of the TNFα by a microtiter plate coated with p55-Ig fusion protein. A constant concentration of human TNFα is preincubated with the test peptide and then incubated on the p55-Ig coated microtiter wells. Bound TNFα is detected using a specific antisera and an alkaline phosphatase-conjugated probe. An active peptide will reduce the amount of human TNFα bound to the well relative to control wells in which TNFα but no peptide was added.
A 96-well, U-bottom polyvinylchloride microtiter plate was coated with 50 μl/well of p55-Ig fusion protein at 5 μg/ml in 0.01M sodium phosphate, 0.15M sodium chloride (PBS) by incubation overnight at 4° C. or 2 hours at 37° C. The fusion protein, which consists of a p55 TNF receptor protein portion and an IgG portion, can be produced as disclosed in U.S. application Ser. No. 08/010,406 filed Jan. 29, 1993 which is incorporated herein by reference. The plate was washed three times with 0.05% Tween-20 in PBS, then blocked, by adding 150 μl/well of assay buffer (10 mM N-2-hydroxyethylpiperazine-N'-[…] (HEPES) pH 7.2, containing 0.1% porcine gelatin, 0.1% Tween-80, and 0.01% sodium azide) and continuing incubation for 1 hour at 37° C. or at 4° C. for 1-7 days.
Lyophilized peptides to be tested were weighed in tared 12×75 mm polystyrene tubes and reconstituted to a concentration of 1.2 mM with assay buffer. Each suspension was sonicated in a water bath for 1-5 minutes and vortexed 15-30 seconds to disperse large particles. Serial dilutions of each peptide suspension were prepared using assay buffer in a 96-well polystyrene microtiter plate. Additional wells received Fab fragment of the mouse/human monoclonal anti-human TNFα antibody cA2 (positive control) or assay buffer (negative control). […] The polystyrene dilution plate was then sealed and incubated 1 hour at room temperature on an orbital mixer set at moderate speed.
Following the sample preincubation, blocker was discarded from the p55-Ig coated plate and blotted dry. Aliquots (50 μl) of each peptide or control were transferred into duplicate wells on the p55-Ig coated plate which was then sealed and incubated 1 hour at 37° C. Duplicate wells containing only assay buffer were included as a plate blank. After incubation the p55-Ig plate was washed three times with 0.05% Tween-20 in PBS.
To detect TNFα captured by the p55-Ig plate, all wells were incubated in succession with polyclonal rabbit anti-human TNFα (Genzyme, Boston, Mass.; 1:500 in assay buffer, 50 μl/well), biotinylated goat anti-rabbit Ig (H&L) (Vector Laboratories, Burlingame, Calif.; 1 μg/ml in assay buffer, 50 μl/well) and streptavidin-alkaline phosphatase conjugate (Pierce, Rockford, Ill.; 1 μg/ml in assay buffer, 50 μl/well). All incubations were for 1 hour at 37° C. and after each incubation the plate was washed three times with 0.05% Tween-20 in PBS. Fifty microliters of alkaline phosphatase substrate solution (alkaline buffer (Sigma, St. Louis, Mo.) diluted 1:500 in deionized water plus one 5 mg tablet of p-nitrophenyl phosphate (Sigma, St. Louis, Mo.) per 5 ml of diluted buffer) was added to all wells and incubation continued for 20 minutes at room temperature. Color development was stopped by adding to all wells 50 μl of 3N sodium hydroxide. The optical density (OD) at 405 nm was measured on a microtiter plate reader (Molecular Devices Vmax plate reader), with the plate blank wells subtracted as background. The activity of each peptide was then expressed as the percent inhibition of TNFα capture by the p55-Ig plate, relative to the amount of TNFα captured in wells containing only assay buffer (negative control), as follows: […]

Row | IC50 [µM] | Substance
1 | 2530 | Ac-DILLTQSPAILSVSPGERVSFS-NH2 [SEQ ID NO:6, Acetyl-aspartyl-isoleucyl-leucyl-leucyl-threonyl-glutaminyl-seryl-prolyl-alanyl-isoleucyl-leucyl-seryl-valyl-seryl-prolyl-glycyl-glutamyl-arginyl-valyl-seryl-phenylalanyl-serine-amide]
2 | 60 | Ac-FSNHWMNW-NH2 [SEQ ID NO:9, Acetyl-phenylalanyl-seryl-asparaginyl-histidyl-tryptophyl-methionyl-asparaginyl-tryptophan-amide]
3 | 410 | Ac-FSNHWMNWVR-NH2 [SEQ ID NO:2, Acetyl-phenylalanyl-seryl-asparaginyl-histidyl-tryptophyl-methtonyl-asparaginyl-tryptophyl-valyl-arginine-amide]
4 | 1110 | Ac-INTVESEDIADYYCQQSHSW-NH2 [SEQ ID NO:8, Acetyl-isoleucyl-asparaginyl-threonyl-valyl-glutamyl-seryl-glutamyl-aspartyl-isoleucyl-alanyl-aspartyl-tyrosyl-tyrosyl-cysteinyl-glutaminyl-glutaminyl-seryl-histidyl-seryl-tryptophan-amide]
5 | 1880 | Ac-LIKYASQSMSGI-NH2 [SEQ ID NO:1, Acetyl-leucyl-tsoleucyl-lysyl-tyrosyl-alanyl-seryl-glutaminyl-seryl-methionyl-seryl-glycyl-isoleucine-amide]
6 | 1130 | Ac-TDLRTEDTGVYYCSRNYYGSTY-NH2 [SEQ ID NO:5, Acetyl-threonyl-aspartyl-leucyl-arginyl-threonyl-glutamyl-aspartyl-threonyl-glycyl-valyl-tyrosyltyrosyl-cysteinyl-seryl-arginyl-asparaginyl-tyrosyl-tyrosyl-glycyl-seryl-threonyl-tyrosine-amide]
7 | 290 | Ac-YAESVKGRFTISRDDSKSAVYL-NH2 [SEQ ID NO:3, Acetyl-tyrosyl-alanyl-glutamyl-seryl-valyl-lysyl-glycyl-arginyl-phenylalanyl-threonyl-isoleucyl-seryl-arginyl-aspartyl-aspartyl-seryl-lysyl-seryl-alanyl-valyl-tyrosyl-leucine-amide]
8 | 1080 | Ac-YYSQQSHSWPFTF-NH2 [SEQ ID NO:7, Acetyl-tyrosyl-tyrosyl-seryl-glutaminyl-glutaminyl-seryl-histidyl-seryl-tryptophyl-prolyl-phenylalanyl-threonyl-phenylalanine-amide]
9 | 1020 | RQSPEKGLEWVAEIRSKSI-NH2 [SEQ ID NO:4, Arginyl-glutaminyl-seryl-prolyl-glutamyl-lysyl-glycyl-leucyl-glutamyl-tryptophyl-valyl-alanyl-glutamyl-isoleucyl-arginyl-seryl-lysyl-seryl-isoleucine- amide]
